Legend:
KRas G12C = molecular target: T1, KRas G12C (Homo sapiens, UniProt P01116, G12C); assay: KRas binding assay, TR-FRET displacement of Cy5 labelled tracer; conditions: 60-minute incubation at room temperature, 1% DMSO, pH 7.5
T1 construct: Biotinylated KRas (corresponding to amino acids 1-169, produced at Accelegan Inc.); biotin (biotinylated); purchased Accelegan Inc
Summary of the method: (§1)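 Room-temperature incubation (60 min) of compound with biotinylated KRas 1-169, tracer and Tb-streptavidin preceded the TR-FRET read. Final DMSO was 1%; buffer pH 7.5. Percent-of-control values went into a 4-parameter equation to give IC50.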

KRas G12S = molecular target: T2, KRas G12S (Homo sapiens, UniProt P01116, G12S); assay: as above; conditions: 60-minute incubation at room temperature, 1% DMSO, pH 7.5
T2 construct: Biotinylated KRas (corresponding to amino acids 1-169, produced at Accelegan Inc.); biotin (biotinylated); purchased Accelegan Inc
T2 sequence (P01116 1-169 isoform P01116-2 G12S): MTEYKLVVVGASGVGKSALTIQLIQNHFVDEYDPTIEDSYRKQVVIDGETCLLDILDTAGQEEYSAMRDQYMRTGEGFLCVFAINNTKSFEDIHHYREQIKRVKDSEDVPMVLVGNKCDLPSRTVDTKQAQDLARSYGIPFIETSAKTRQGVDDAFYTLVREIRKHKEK
Summary of the method: as §1

KRas WT = molecular target: T3, KRas WT (Homo sapiens, UniProt P01116); assay: as above; conditions: 60-minute incubation at room temperature, 1% DMSO, pH 7.5
T3 construct: Biotinylated KRas (corresponding to amino acids 1-169, produced at Accelegan Inc.); biotin (biotinylated); purchased Accelegan Inc
T3 sequence (P01116 1-169 isoform P01116-2): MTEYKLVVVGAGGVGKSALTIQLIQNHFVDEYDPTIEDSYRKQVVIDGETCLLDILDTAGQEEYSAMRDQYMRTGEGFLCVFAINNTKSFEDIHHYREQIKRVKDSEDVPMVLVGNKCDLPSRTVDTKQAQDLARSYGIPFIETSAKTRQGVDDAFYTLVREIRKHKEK
Summary of the method: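 Compound competes with tracer for biotin-labelled KRas (amino acids 1-169) bound to terbium-streptavidin. Incubation runs 60 minutes at room temperature, final DMSO 1%. IC50 values derive from a 4-parameter fit.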

[1] = molecular target: T4, KRas-mediated phosphorylation of ERK in MKN1 cells (Homo sapiens, UniProt P01116); assay: Inhibition of KRas-mediated phosphorylation of ERK (HTRF), MKN1 cells; assay type: cell-based; conditions: MKN1 cells (KRas WT); HTRF pERK; 3 h incubation
T4 construct: pERK HTRF read-out
T4 sequence (P01116 1-188 isoform P01116-2): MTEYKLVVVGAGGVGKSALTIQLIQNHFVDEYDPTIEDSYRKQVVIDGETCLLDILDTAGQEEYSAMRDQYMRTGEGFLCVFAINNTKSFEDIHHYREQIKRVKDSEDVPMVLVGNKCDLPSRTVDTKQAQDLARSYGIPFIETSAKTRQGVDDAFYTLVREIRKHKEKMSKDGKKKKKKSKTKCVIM
Procedure: Inhibition of KRas Phosphorylation of ERK (HTRF) by Exemplary Compounds of Formula (Ia) or (Ib)
Cisbio HTRF Advanced pERK Assay Catalog #64AERPEH • Cells: MKN1, PSN1 • Procedure: • 1. Day 1: Seed 6,000 cells/well −25 μl/well in 384-well white solid bottom plate; RPM1_10% FBS. Incubate overnight at 37 °C/5% CO2. • 2.

[2] = molecular target: T5, KRas-mediated phosphorylation of ERK in A549 cells (Homo sapiens, UniProt P01116, G12S); assay: Inhibition of KRas-mediated phosphorylation of ERK (HTRF), A549 cells; assay type: cell-based; conditions: HTRF pERK, 3 h incubation
T5 construct: pERK HTRF read-out
T5 sequence (P01116 1-188 isoform P01116-2 G12S): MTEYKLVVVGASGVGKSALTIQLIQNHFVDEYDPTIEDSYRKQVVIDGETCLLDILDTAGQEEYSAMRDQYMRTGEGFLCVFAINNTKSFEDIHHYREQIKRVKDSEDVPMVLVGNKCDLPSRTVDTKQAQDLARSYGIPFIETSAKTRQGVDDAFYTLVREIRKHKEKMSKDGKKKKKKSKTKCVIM

[3] = molecular target: T6, KRas-mediated phosphorylation of ERK in H358 cells (Homo sapiens, UniProt P01116, G12C); assay: Inhibition of KRas-mediated phosphorylation of ERK (HTRF), H358 cells; assay type: cell-based; conditions: HTRF pERK, 3 h incubation
T6 construct: pERK HTRF read-out
T6 sequence (P01116 1-188 isoform P01116-2 G12C): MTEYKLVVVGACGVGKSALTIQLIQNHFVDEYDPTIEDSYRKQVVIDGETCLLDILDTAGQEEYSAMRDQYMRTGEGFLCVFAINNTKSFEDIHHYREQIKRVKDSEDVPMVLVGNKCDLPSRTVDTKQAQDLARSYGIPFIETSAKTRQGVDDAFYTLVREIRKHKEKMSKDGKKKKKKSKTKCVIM

T1 sequence (P01116 1-169 isoform P01116-2 G12C): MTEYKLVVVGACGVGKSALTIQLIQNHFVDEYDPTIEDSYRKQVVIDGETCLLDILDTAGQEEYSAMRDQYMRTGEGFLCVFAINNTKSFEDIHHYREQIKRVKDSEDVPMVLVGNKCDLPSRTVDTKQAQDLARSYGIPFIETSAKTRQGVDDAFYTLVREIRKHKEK

| Compound | IC50 (KRas G12C) [nM] | IC50 (KRas G12S) [nM] | IC50 (KRas WT) [nM] | IC50 [1] [nM] | IC50 [2] [nM] | IC50 [3] [nM] |
| --- | --- | --- | --- | --- | --- | --- |
| CN(CCCC(=O)Nc1ccccn1)c1nc(OC[C@@]23CCCN2C[C@H](F)C3)nc2c(F)c(-c3ccc(F)c4sc(N)c(C#N)c34)c(Cl)cc12 [Example 214, 4-((7-(2-amino-3-cyano-7-fluorobenzo[b]thiophen-4-yl)-6-chloro-8-fluoro-2-(((2R,7aS)-2-fluorotetrahydro-1H-pyrrolizin-7a(5H)-yl)methoxy)quinazolin-4-yl)(methyl)amino)-N-(pyridin-2-yl)butanamide] | 8 | 13 | 14 | 120 | 661 | 93 |
| Cc1ccn(C(=O)CCCN(C)c2cc(O[C@@H](C)[C@@H]3CCCN3C)nc(-c3cc([C@]4(C)CCCc5sc(N)c(C#N)c54)sn3)n2)n1 [Example 323, (R)-2-amino-4-methyl-4-(3-(4-(methyl (4-(3-methyl-1H-pyrazol-1-yl)-4-oxobutyl)amino)-6-((S)-1-((S)-1-methylpyrrolidin-2-yl)ethoxy)pyrimidin-2-yl)isothiazol-5-yl)-4,5,6,7-tetrahydrobenzo[b]thiophene-3-carbonitrile] | 17 | 26 | 346 | 1860 | 140 | 3330 |
| CCc1c(F)ccc2cc(O)cc(-c3ncc4c(N5CCN(C(=O)n6ccc(C)n6)C6(CC6)C5)nc(OC[C@@]56CCCN5C[C@H](F)C6)nc4c3F)c12 (single isomer, unassigned) [Example 78] | 128 | 146 | 25 | 90 | 3820 | 1250 |
| CCc1c(F)ccc2cc(O)cc(-c3ncc4c(N(CC)CCCC(=O)n5ccc(C)n5)nc(OC[C@@]56CCCN5C[C@H](F)C6)nc4c3F)c12 [Example 164, 4-(ethyl(7-(8-ethyl-7-fluoro-3-hydroxynaphthalen-1-yl)-8-fluoro-2-(((2R,7aS)-2-fluorotetrahydro-1H-pyrrolizin-7a(5H)-yl)methoxy)pyrido[4,3-d]pyrimidin-4-yl)amino)-1-(3-methyl-1H-pyrazol-1-yl) butan-1-one] | 5 | 8 | 103 | 2210 | 50 | 999 |
| Cc1ccn(C(=O)C2CCCN(c3nc(OC[C@@]45CCCN4C[C@H](F)C5)nc4c(F)c(-c5ccc(F)c6sc(N)c(C#N)c56)c(C(F)(F)F)cc34)CC2)n1 (stereo partly drawn) [Example 272, 2-amino-7-fluoro-4-(8-fluoro-2-(((2R,7aS)-2-fluorotetrahydro-1H-pyrrolizin-7a(5H)-yl)methoxy)-4-(4-(3-methyl-1H-pyrazole-1-carbonyl)azepan-1-yl)-6-(trifluoromethyl)quinazolin-7-yl)benzo[b]thiophene-3-carbonitrile] | 6 | 5 | 9 | 62 | 4 | 3 |
| CN(CCCC(=O)Nc1cccnc1)c1nc(OC[C@@]23CCCN2C[C@H](F)C3)nc2c(F)c(-c3ccc(F)c4sc(N)c(C#N)c34)c(Cl)cc12 [Example 201, 4-((7-(2-amino-3-cyano-7-fluorobenzo[b]thiophen-4-yl)-6-chloro-8-fluoro-2-(((2R,7aS)-2-fluorotetrahydro-1H-pyrrolizin-7a(5H)-yl)methoxy)quinazolin-4-yl)(methyl)amino)-N-(pyridin-3-yl)butanamide] | 4 | 5 | 6 | 251 | 1570 | 373 |
| Cc1ccn(C(=O)CCCN(C)c2nc(OC[C@@]34CCCN3C[C@H](F)C4)nc3c(F)c(-c4ccc(F)c5sc(N)c(C#N)c45)c(Cl)cc23)n1 [Example 141, 2-amino-4-(6-chloro-8-fluoro-2-(((2R,7aS)-2-fluorotetrahydro-1H-pyrrolizin-7a(5H)-yl)methoxy)-4-(methyl (4-(3-methyl-1H-pyrazol-1-yl)-4-oxobutyl)amino)quinazolin-7-yl)-7-fluorobenzo[b]thiophene-3-carbonitrile] | < 2 | < 2 | 11 | 363 | 10 | 26 |
| CCc1c(F)ccc2cc(O)cc(-c3ncc4c(N5CCC(C(=O)N6CCCCC6=O)CC5)nc(OC[C@@]56CCCN5C[C@H](F)C6)nc4c3F)c12 [Example 154, 1-(1-(7-(8-ethyl-7-fluoro-3-hydroxynaphthalen-1-yl)-8-fluoro-2-(((2R,7aS)-2-fluorotetrahydro-1H-pyrrolizin-7a(5H)-yl)methoxy)pyrido[4,3-d]pyrimidin-4-yl)piperidine-4-carbonyl)piperidin-2-one] | 338 | 257 | 131 | 2870 | 6280 | 7230 |
| Cc1ccn(C(=O)C2CC3CN(c4nc(OC[C@@]56CCCN5C[C@H](F)C6)nc5c(F)c(-c6ccc(F)c7sc(N)c(C#N)c67)c(Cl)cc45)CC32)n1 (stereo partly drawn) [Example 178, 2-amino-4-(6-chloro-8-fluoro-2-(((2R,7aS)-2-fluorotetrahydro-1H-pyrrolizin-7a(5H)-yl)methoxy)-4-(6-(3-methyl-1H-pyrazole-1-carbonyl)-3-azabicyclo[3.2.0]heptan-3-yl)quinazolin-7-yl)-7-fluorobenzo[b]thiophene-3-carbonitrile] | 13 | 15 | 44 | 356 | 108 | 226 |
| CCc1c(F)ccc2cc(O)cc(-c3ncc4c(N5CCC(C(=O)n6cc(C(C)(C)C)cn6)CC5)nc(OC[C@@]56CCCN5C[C@H](F)C6)nc4c3F)c12 [Example 72, (4-(tert-butyl)-1H-pyrazol-1-yl)(1-(7-(8-ethyl-7-fluoro-3-hydroxynaphthalen-1-yl)-8-fluoro-2-(((2R,7aS)-2-fluorotetrahydro-1H-pyrrolizin-7a(5H)-yl)methoxy)pyrido[4,3-d]pyrimidin-4-yl)piperidin-4-yl)methanone] | 408 | 274 | 572 | 3330 | 748 | 7290 |
| CCc1c(F)ccc2cc(O)cc(-c3ncc4c(N(CCCC(=O)n5ccc(C)n5)C5CC5)nc(OC[C@@]56CCCN5C[C@H](F)C6)nc4c3F)c12 [Example 165, 4-(cyclopropyl(7-(8-ethyl-7-fluoro-3-hydroxynaphthalen-1-yl)-8-fluoro-2-(((2R,7aS)-2-fluorotetrahydro-1H-pyrrolizin-7a(5H)-yl)methoxy)pyrido[4,3-d]pyrimidin-4-yl)amino)-1-(3-methyl-1H-pyrazol-1-yl) butan-1-one] | 2 | 4 | 52 | 226 | 62 | 450 |
| CCc1c(F)ccc2cc(O)cc(-c3ncc4c(N5CCC(C(=O)NC(C)=O)CC5)nc(OC[C@@]56CCCN5C[C@H](F)C6)nc4c3F)c12 [Example 212, N-acetyl-1-(7-(8-ethyl-7-fluoro-3-hydroxynaphthalen-1-yl)-8-fluoro-2-(((2R,7aS)-2-fluorotetrahydro-1H-pyrrolizin-7a(5H)-yl)methoxy)pyrido[4,3-d]pyrimidin-4-yl)piperidine-4-carboxamide] | 623 | 371 | 165 | 868 | > 10000 | 4600 |
| CCc1c(F)ccc2cc(O)cc(-c3ncc4c(N5CCC(C(=O)n6ccc(C(C)C)n6)CC5)nc(OC[C@@]56CCCN5C[C@H](F)C6)nc4c3F)c12 [Example 76, (1-(7-(8-ethyl-7-fluoro-3-hydroxynaphthalen-1-yl)-8-fluoro-2-(((2R,7aS)-2-fluorotetrahydro-1H-pyrrolizin-7a(5H)-yl)methoxy)pyrido[4,3-d]pyrimidin-4-yl)piperidin-4-yl)(3-isopropyl-1H-pyrazol-1-yl)methanone] | 124 | 150 | 166 | 2060 | 223 | 4720 |
| N#Cc1c(N)sc2c(F)ccc(-c3c(Cl)cc4c(N5CCC(C(=O)Oc6ccccc6F)CC5)nc(OC[C@@]56CCCN5C[C@H](F)C6)nc4c3F)c12 [Example 288, 2-fluorophenyl 1-(7-(2-amino-3-cyano-7-fluorobenzo[b]thiophen-4-yl)-6-chloro-8-fluoro-2-(((2R,7aS)-2-fluorotetrahydro-1H-pyrrolizin-7a(5H)-yl)methoxy)quinazolin-4-yl)piperidine-4-carboxylate] | 9 | 20 | 143 | 246 | 77 | 24 |

— US20260356856A1, “KRAS G12S AND G12C INHIBITORS” (MIRATI THERAPEUTICS, INC., priority 2023, published 2026)
